From PubChem BioAssay (NCI)
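Compound exposure: 48 hours, 5 concentrations, 96-well plates. GI50: concentration for 50% inhibition of growth. TGI is the concentration that stops growth completely.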

Assays:
Experiment in all cases: growth of human tumour cells (NCI), 48 h
SK-OV-3 ovarian = system: SK-OV-3 ovarian
OVCAR-4 ovarian = system: OVCAR-4 ovarian
SNB-75 CNS = system: SNB-75 CNS
NCI-H23 lung = system: NCI-H23 lung
MDA-MB-435 = system: MDA-MB-435
DU-145 prostate = system: DU-145 prostate
RPMI-8226 leukemia = system: RPMI-8226 leukemia
SW-620 colon = system: SW-620 colon
KM12 colon = system: KM12 colon
EKVX NSCLC = system: EKVX NSCLC
SNB-19 CNS = system: SNB-19 CNS
NCI/ADR-RES ovarian = system: NCI/ADR-RES ovarian
NCI-H460 lung = system: NCI-H460 lung
SF-268 CNS = system: SF-268 CNS
CAKI-1 renal = system: CAKI-1 renal
SR leukemia = system: SR leukemia
TK-10 renal = system: TK-10 renal
786-0 renal = system: 786-0 renal
T-47D breast = system: T-47D breast
U251 CNS = system: U251 CNS
MOLT-4 leukemia = system: MOLT-4 leukemia
SK-MEL-28 melanoma = system: SK-MEL-28 melanoma
SF-539 CNS = system: SF-539 CNS
HS 578T breast = system: HS 578T breast
UACC-257 melanoma = system: UACC-257 melanoma
PC-3 prostate = system: PC-3 prostate
IGROV1 ovarian = system: IGROV1 ovarian
NCI-H522 lung = system: NCI-H522 lung
HCC-2998 colon = system: HCC-2998 colon
A498 renal = system: A498 renal
LOX IMVI melanoma = system: LOX IMVI melanoma
HCT-116 colon = system: HCT-116 colon
MALME-3M melanoma = system: MALME-3M melanoma
K-562 leukemia = system: K-562 leukemia
RXF 393 renal = system: RXF 393 renal
UO-31 renal = system: UO-31 renal
HL-60(TB) leukemia = system: HL-60(TB) leukemia
MCF7 breast = system: MCF7 breast
SK-MEL-2 melanoma = system: SK-MEL-2 melanoma
BT-549 breast = system: BT-549 breast
UACC-62 melanoma = system: UACC-62 melanoma
SF-295 CNS = system: SF-295 CNS
OVCAR-5 ovarian = system: OVCAR-5 ovarian
HT29 colon = system: HT29 colon
HCT-15 colon = system: HCT-15 colon
COLO 205 colon = system: COLO 205 colon
ACHN renal = system: ACHN renal
HOP-92 NSCLC = system: HOP-92 NSCLC
M14 melanoma = system: M14 melanoma
OVCAR-3 ovarian = system: OVCAR-3 ovarian
A549 NSCLC = system: A549 NSCLC
MDA-MB-231 breast = system: MDA-MB-231 breast
CCRF-CEM leukemia = system: CCRF-CEM leukemia
OVCAR-8 ovarian = system: OVCAR-8 ovarian
NCI-H226 lung = system: NCI-H226 lung
HOP-62 NSCLC = system: HOP-62 NSCLC
SN12C renal = system: SN12C renal
SK-MEL-5 melanoma = system: SK-MEL-5 melanoma

SMILES: COc1cc(/C=N\O)nc(-c2ccccn2)c1
- TGI (SK-OV-3 ovarian): > 100 µM
- TGI (OVCAR-4 ovarian): > 100 µM
- TGI (SNB-75 CNS): > 51.6 µM
- TGI (NCI-H23 lung): > 100 µM
- TGI (MDA-MB-435): > 100 µM
- TGI (DU-145 prostate): > 100 µM
- TGI (RPMI-8226 leukemia): > 76.8 µM
- TGI (SW-620 colon): > 100 µM
- TGI (KM12 colon): > 100 µM
- TGI (EKVX NSCLC): 23.5 µM
- TGI (SNB-19 CNS): > 100 µM
- TGI (NCI/ADR-RES ovarian): > 49.6 µM
- TGI (NCI-H460 lung): > 100 µM
- TGI (SF-268 CNS): > 100 µM
- TGI (CAKI-1 renal): 28 µM
- TGI (SR leukemia): 0.453 µM
- TGI (TK-10 renal): > 100 µM
- TGI (786-0 renal): > 100 µM
- TGI (T-47D breast): > 100 µM
- TGI (U251 CNS): > 100 µM
- TGI (MOLT-4 leukemia): > 100 µM
- TGI (SK-MEL-28 melanoma): > 100 µM
- TGI (SF-539 CNS): > 32.8 µM
- TGI (HS 578T breast): > 100 µM
- TGI (UACC-257 melanoma): > 100 µM
- TGI (PC-3 prostate): > 100 µM
- TGI (IGROV1 ovarian): 13.2 µM
- TGI (NCI-H522 lung): 56.2 µM
- TGI (HCC-2998 colon): > 100 µM
- TGI (A498 renal): 9.22 µM
- TGI (LOX IMVI melanoma): > 100 µM
- TGI (HCT-116 colon): > 100 µM
- TGI (MALME-3M melanoma): > 100 µM
- TGI (K-562 leukemia): > 100 µM
- TGI (RXF 393 renal): > 100 µM
- TGI (UO-31 renal): 3.13 µM
- TGI (HL-60(TB) leukemia): > 35.5 µM
- TGI (MCF7 breast): > 100 µM
- TGI (SK-MEL-2 melanoma): > 100 µM
- TGI (BT-549 breast): > 100 µM
- TGI (UACC-62 melanoma): 8.28 µM
- TGI (SF-295 CNS): > 100 µM
- TGI (OVCAR-5 ovarian): > 100 µM
- TGI (HT29 colon): > 100 µM
- TGI (HCT-15 colon): > 100 µM
- TGI (COLO 205 colon): > 100 µM
- TGI (ACHN renal): > 100 µM
- TGI (HOP-92 NSCLC): > 100 µM
- TGI (M14 melanoma): > 45 µM
- TGI (OVCAR-3 ovarian): > 100 µM
- TGI (A549 NSCLC): > 100 µM
- TGI (MDA-MB-231 breast): > 100 µM
- TGI (CCRF-CEM leukemia): > 100 µM

SMILES: COc1cc([C@@H]2c3cc4c(cc3C(OC3O[C@@H]5COC(C)O[C@H]5[C@H](O)[C@H]3O)C3COC(=O)[C@@H]32)OCO4)cc(OC)c1O (stereo partly specified)
- GI50 (SK-OV-3 ovarian): 1.58 µM
- TGI (SK-OV-3 ovarian): 14.2 µM
- GI50 (OVCAR-4 ovarian): 14.4 µM
- TGI (OVCAR-4 ovarian): > 50 µM
- GI50 (SNB-75 CNS): 1.18 µM
- TGI (SNB-75 CNS): > 18.9 µM
- GI50 (NCI-H23 lung): 0.652 µM
- TGI (NCI-H23 lung): 6.88 µM
- GI50 (MDA-MB-435): 3.89 µM
- TGI (MDA-MB-435): > 50 µM
- GI50 (OVCAR-8 ovarian): 1.56 µM
- TGI (OVCAR-8 ovarian): > 34.8 µM
- GI50 (DU-145 prostate): 1.2 µM
- TGI (DU-145 prostate): 5.78 µM
- GI50 (RPMI-8226 leukemia): 0.666 µM
- TGI (RPMI-8226 leukemia): 7.83 µM
- GI50 (SW-620 colon): 0.67 µM
- TGI (SW-620 colon): > 27.2 µM
- GI50 (KM12 colon): 2.46 µM
- TGI (KM12 colon): > 24.4 µM
- GI50 (EKVX NSCLC): 11.4 µM
- TGI (EKVX NSCLC): > 50 µM
- GI50 (SNB-19 CNS): 0.836 µM
- TGI (SNB-19 CNS): > 47.9 µM
- GI50 (NCI/ADR-RES ovarian): 15.4 µM
- TGI (NCI/ADR-RES ovarian): > 50 µM
- GI50 (NCI-H460 lung): 0.116 µM
- TGI (NCI-H460 lung): 6.88 µM
- GI50 (SF-268 CNS): 1.22 µM
- TGI (SF-268 CNS): 15.4 µM
- GI50 (CAKI-1 renal): 1.83 µM
- TGI (CAKI-1 renal): > 28.1 µM
- GI50 (SR leukemia): 0.0276 µM
- GI50 (TK-10 renal): 3.56 µM
- TGI (TK-10 renal): 15.4 µM
- GI50 (786-0 renal): 0.976 µM
- TGI (786-0 renal): 3.67 µM
- GI50 (T-47D breast): 0.331 µM
- TGI (T-47D breast): > 33.1 µM
- GI50 (U251 CNS): 0.667 µM
- TGI (U251 CNS): 14.9 µM
- GI50 (MOLT-4 leukemia): 0.0948 µM
- TGI (MOLT-4 leukemia): 0.882 µM
- GI50 (NCI-H226 lung): 0.792 µM
- TGI (NCI-H226 lung): 7.25 µM
- GI50 (HOP-62 NSCLC): 0.619 µM
- TGI (HOP-62 NSCLC): 2.97 µM
- GI50 (SK-MEL-28 melanoma): 2.12 µM
- TGI (SK-MEL-28 melanoma): > 34.6 µM
- GI50 (SF-539 CNS): 0.635 µM
- TGI (SF-539 CNS): 3.78 µM
- GI50 (HS 578T breast): 1.97 µM
- TGI (HS 578T breast): > 31.8 µM
- GI50 (UACC-257 melanoma): 2.12 µM
- TGI (UACC-257 melanoma): > 50 µM
- GI50 (PC-3 prostate): 5.59 µM
- TGI (PC-3 prostate): > 50 µM
- GI50 (IGROV1 ovarian): 2.95 µM
- TGI (IGROV1 ovarian): > 50 µM
- GI50 (NCI-H522 lung): 0.65 µM
- TGI (NCI-H522 lung): 4.91 µM
- GI50 (HCC-2998 colon): 1.91 µM
- TGI (HCC-2998 colon): 11.2 µM
- GI50 (A498 renal): 0.605 µM
- TGI (A498 renal): 14 µM
- GI50 (LOX IMVI melanoma): 0.444 µM
- TGI (LOX IMVI melanoma): 13.7 µM
- GI50 (HCT-116 colon): 1.27 µM
- TGI (HCT-116 colon): > 50 µM
- GI50 (MALME-3M melanoma): 1.21 µM
- TGI (MALME-3M melanoma): 14.1 µM
- GI50 (K-562 leukemia): 1.53 µM
- TGI (K-562 leukemia): > 30.3 µM
- GI50 (RXF 393 renal): 0.982 µM
- TGI (RXF 393 renal): 8.31 µM
- GI50 (UO-31 renal): 3 µM
- TGI (UO-31 renal): 31.6 µM
- GI50 (HL-60(TB) leukemia): 0.182 µM
- TGI (HL-60(TB) leukemia): 1.53 µM
- GI50 (SN12C renal): 0.917 µM
- TGI (SN12C renal): 12.4 µM
- GI50 (MCF7 breast): 0.254 µM
- TGI (MCF7 breast): > 50 µM
- GI50 (SK-MEL-2 melanoma): 7.37 µM
- TGI (SK-MEL-2 melanoma): 31.9 µM
- GI50 (BT-549 breast): 1.66 µM
- TGI (BT-549 breast): > 29.2 µM
- GI50 (UACC-62 melanoma): 0.868 µM
- TGI (UACC-62 melanoma): > 44.9 µM
- GI50 (SF-295 CNS): 0.72 µM
- TGI (SF-295 CNS): 9.83 µM
- GI50 (OVCAR-5 ovarian): 11 µM
- TGI (OVCAR-5 ovarian): > 50 µM
- GI50 (HT29 colon): 5.42 µM
- TGI (HT29 colon): 20.3 µM
- GI50 (HCT-15 colon): 8.4 µM
- TGI (HCT-15 colon): > 50 µM
- GI50 (COLO 205 colon): 3.68 µM
- TGI (COLO 205 colon): 21.3 µM
- GI50 (ACHN renal): 1.27 µM
- TGI (ACHN renal): > 25 µM
- GI50 (SK-MEL-5 melanoma): 0.861 µM
- TGI (SK-MEL-5 melanoma): 7.96 µM
- GI50 (HOP-92 NSCLC): 0.397 µM
- TGI (HOP-92 NSCLC): 9.97 µM
- GI50 (M14 melanoma): 1.37 µM
- TGI (M14 melanoma): 7.83 µM
- GI50 (OVCAR-3 ovarian): 4.8 µM
- TGI (OVCAR-3 ovarian): > 28 µM
- GI50 (A549 NSCLC): 0.363 µM
- TGI (A549 NSCLC): > 39.1 µM
- GI50 (MDA-MB-231 breast): 7.25 µM
- TGI (MDA-MB-231 breast): > 40.4 µM
